Patent US20260263584A1, “Modulating the Innate Immunity of RNA” (priority 2023, published 2026)

Test system: Hela cells
Assay type: cell-based, human

How did the “frequency of HA-positive cells, higher than vehicle controls” value turn out when `Cn1c(=O)n(C2CCC(=O)NC2=O)c2cccc(C#CCOC3CCN(C[C@H]4CC[C@H](n5cc(NC(=O)c6cnn7ccc(N8C[C@H]9C[C@@H]8CO9)nc67)c(C(F)F)n5)CC4)CC3)c21` (stereo partly drawn) [PF-07911620, N-{3-(difluoromethyl)-1-[(1S,4R)-4-({4-[(3-{1-[(3S)-2,6-dioxopiperidin-3-yl]-3-methyl-2-oxo-2,3-dihydro-1H-benzimidazol-4-yl}prop-2-yn-1-yl)oxy]piperidin-1-yl}methyl)cyclohexyl]-1H-pyrazol-4-yl}-5-[(1R,4R)-2-oxa-5-azabicyclo[2,2,1]heptan-5-yl]pyrazolo[1,5-a]pyrimidine-3-carboxamide] was run?
The value was 5.5 fold.
